Results as given in patent publication US12098151B2 (priority 2018, dated 2024).
Where two headings read alike, the source gives them in different places.

Key:
Junin virus = assay: microbe, parasite or virus in culture; type: cell-based
LCMV = assay: microbe, parasite or virus in culture; type: cell-based, lymphocytic choriomeningitis virus (LCMV)
[1] = Mammarenavirus juninense, HEK-293T, 96 h
[2] = Mammarenavirus choriomeningitidis, KB, 96 h

| SMILES | EC50 (Junin virus; [1]) [nM] | EC50 (LCMV; [2]) [nM] | other results |
| --- | --- | --- | --- |
| C[C@@H](N1CN([C@H]2c3ccccc3CSc3ccccc32)n2cc(C(=O)O)c(=O)c(O)c2C1=O)C(F)(F)F [Compound I-004] | 15 | 12 |  |
| O=C(O)c1cn2c(c(O)c1=O)C(=O)N(C1CC1)CN2C1c2ccccc2CCc2ccccc21 [II-001] | 4.5 | 8.1 |  |
| COCCN1C(=O)c2c(O)c(=O)c(C(=O)O)cn2C[C@H]1C(c1ccccc1)c1ccccc1 [Compound I-036] | 74 | 69 |  |
| CC(C)N1CC(Cc2ccccc2)n2cc(C(=O)O)c(=O)c(O)c2C1=O (stereo not shown) [Compound I-055] | 1870 |  |  |
| O=C(O)c1cn2c(c(O)c1=O)C(=O)N1CCOC[C@H]1N2[C@@H]1c2ccccc2SCc2c1ccc(F)c2F [Compound I-001] |  |  | EC50 (Junin virus; read-out: EC50): 111 nM; EC50 (LCMV; read-out: EC50): 115 nM |
| CC(C)N1CN(C2c3ccc(F)cc3CCc3cc(F)ccc32)n2cc(C(=O)O)c(=O)c(O)c2C1=O [III-023] | 17 | 14 |  |
| CC(C)=CCN1C[C@H](C(c2ccccc2)c2ccccc2)n2cc(C(=O)O)c(=O)c(O)c2C1=O [Compound I-024] | 12 | 14 |  |
| CC(C)N1C[C@H](C(c2ccccc2)c2ccccc2)n2cc(C(=O)O)c(=O)c(O)c2C1=O [Compound I-037] | 82 | 24 |  |
| O=C(O)c1cn2c(c(O)c1=O)C(=O)N(CC1CC1)CN2C1c2ccccc2CSc2ccccc21 (stereo not shown) [III-013] |  |  | EC50 (Junin virus): 3.7 nM; EC50 (LCMV): 3.3 nM |
| CCOC(=O)c1cn2c(c(O)c1=O)C(=O)N(CCOC)C[C@@H]2C(c1ccccc1)c1ccccc1 [Compound I-066] |  | 250 |  |
| COCCN1C[C@H](C(c2ccccc2)c2ccccc2)n2cc(C(=O)O)c(=O)c(O)c2C1=O [Compound I-039] | 240 | 17 |  |
| Cc1cccc2c1CCc1c(C)cccc1C2N1CN(C(C2CC2)C2CC2)C(=O)c2c(O)c(=O)c(C(=O)O)cn21 [III-032] | 17 | 28 |  |
| O=C(O)c1cn2c(c(O)c1=O)C(=O)N(C(C1CC1)C1CC1)CN2C1c2ccccc2CCc2ccccc21 [III-017] | 4.9 | 4.4 |  |
| Cc1cc(CN2C[C@H](C(c3ccccc3)c3ccccc3)n3cc(C(=O)O)c(=O)c(O)c3C2=O)no1 [Compound I-027] | 19 | 9.4 |  |
| CC1N(C)C(=O)c2c(O)c(=O)c(C(=O)O)cn2N1C(c1ccccc1)c1ccccc1 (stereo not shown) [Compound I-006] | 36 | 136 |  |
| CCOCCN1C[C@H](C(c2ccccc2)c2ccccc2)n2cc(C(=O)O)c(=O)c(O)c2C1=O [Compound I-038] | 148 | 28 |  |
| O=C(O)c1cn2c(c(O)c1=O)C(=O)N1CCCO[C@@H]1[C@@H]2C(c1ccccc1)c1ccccc1 [Compound I-050] | 640 |  |  |
| CC(C)N1CN(Cc2ccccc2)n2cc(C(=O)O)c(=O)c(O)c2C1=O [III-026] |  | > 1000 |  |
| O=C(O)c1cn2c(c(O)c1=O)C(=O)N(CC1CC1)CN2C(c1ccc(-c2ccccc2)cc1)c1ccc(-c2ccccc2)cc1 [III-018] | 173 | 399 |  |
| CCN1CN(C2c3ccccc3CCc3ccccc32)n2nc(C(=O)O)c(=O)c(O)c2C1=O [III-019] | 72 | 39 |  |
| COCCN1C[C@H](Cc2ccccc2)n2cc(C(=O)O)c(=O)c(O)c2C1=O [Compound I-057] | 2180 | 225 |  |
| CC(C)N1CN(C2c3ccccc3C=Cc3ccccc32)n2cc(C(=O)O)c(=O)c(O)c2C1=O [III-002] | 4.4 | 11 |  |

| SMILES | EC50 (Junin virus; [1]) [nM] | EC50 (LCMV; [2]) [nM] | other results |
| --- | --- | --- | --- |
| O=C(O)c1cn2c(c(O)c1=O)C(=O)N(Cc1ccc(F)cc1)CN2Cc1ccc(-c2ccccc2)cc1 [Compound I-052] | 751 |  |  |
| O=C(O)c1cn2c(c(O)c1=O)C(=O)N(Cc1cccc(Cl)c1F)C[C@@H]2C(c1ccccc1)c1ccccc1 [Compound I-023] | 11 | 2.2 |  |
| O=C(O)c1cn2c(c(O)c1=O)C(=O)N(CC1CCCC1)CN2C1c2ccccc2CCc2ccccc21 [III-015] | 25 | 17 |  |
| Cc1cccc2c1CCc1c(C)cccc1C2N1CN(CC2CC2)C(=O)c2c(O)c(=O)c(C(=O)O)cn21 [III-031] | 4.5 | 4.1 |  |
| CN1C[C@H](C(c2ccccc2)c2ccccc2)n2cc(C(=O)O)c(=O)c(O)c2C1=O [Compound I-046] | 382 | 69 |  |
| CCN1CN(Cc2ccc(-c3ccccc3)cc2)n2cc(C(=O)O)c(=O)c(O)c2C1=O [Compound I-010] | 579 | 328 |  |
| CC(C)N1CN(C2c3cc(F)c(F)cc3CCc3cc(F)c(F)cc32)n2cc(C(=O)O)c(=O)c(O)c2C1=O [Compound I-074] | 50 | 48 |  |
| COCCN1C(=O)c2c(O)c(=O)c(C(=O)O)cn2N(C2c3ccccc3CCc3ccccc32)C1CCSC (stereo not shown) [Compound I-022] | 10 | 1.6 |  |
| CN1C[C@H](C2c3ccccc3CSc3ccccc32)n2cc(C(=O)O)c(=O)c(O)c2C1=O (stereo partly shown) [Compound I-029] | 42 | < 31 |  |
| O=C(O)c1cn2c(c(O)c1=O)C(=O)N(CC1CCC1)CN2C1c2ccccc2CCc2ccccc21 [III-016] | 12 | 7.3 |  |
| O=C(O)c1cn2c(c(O)c1=O)C(=O)N(CC(F)(F)F)C[C@@H]2C(c1ccccc1)c1ccccc1 [Compound I-049] | 620 | 160 |  |
| CC(C)N1CN(Cc2ccccc2-c2ccccc2)n2cc(C(=O)O)c(=O)c(O)c2C1=O [Compound I-080] | 437 | 499 |  |
| O=C(O)c1cn2c(c(O)c1=O)C(=O)N(CC1CCCCC1)CN2C1c2ccccc2CCc2ccccc21 [III-012] | 21 | 38 |  |
| O=C(O)c1cn2c(c(O)c1=O)C(=O)N[C@H](C(c1ccccc1)c1ccccc1)C2 [Compound I-059] |  | 772 |  |
| O=C(O)c1cn2c(c(O)c1=O)C(=O)N(C(C1CC1)C1CC1)CN2C1c2cccc(F)c2CCc2c(F)cccc21 [III-036] | 5.1 | 6.3 |  |
| Cc1ccc2c(c1)C(N1CN(C(C)C)C(=O)c3c(O)c(=O)c(C(=O)O)cn31)c1cc(C)ccc1CC2 [III-024] | > 200 | 83 |  |
| O=C(O)c1cn2c(c(O)c1=O)C(=O)N(Cc1cccnc1)C[C@@H]2C(c1ccccc1)c1ccccc1 [Compound I-030] | 44 | 31 |  |
| O=C(O)c1cn2c(c(O)c1=O)C(=O)N(CCOc1ccc(F)cc1)C[C@@H]2C(c1ccccc1)c1ccccc1 [Compound I-048] | 518 | 56 |  |
| CC(C)N1CN(Cc2ccccc2CCc2ccccc2)n2cc(C(=O)O)c(=O)c(O)c2C1=O [III-005] | 243 | 90 |  |
| CCN1C(=O)c2c(O)c(=O)c(C(=O)O)cn2C(C(c2ccccc2)c2ccccc2)N1CC (stereo not shown) [Compound I-007] | 138 | 65 |  |
| O=C(O)c1cn2c(c(O)c1=O)C(=O)N(Cc1ccccc1)CC2Cc1ccccc1 (stereo not shown) [Compound I-051] | 739 | 722 |  |
| CC(C)N1CN(C2c3ccccc3CSc3ccccc32)n2cc(C(=O)O)c(=O)c(O)c2C1=O (stereo not shown) [III-021] |  |  | EC50 (Junin virus): 6.2 nM; EC50 (LCMV): 4.9 nM |

| SMILES | EC50 (Junin virus; [1]) [nM] | EC50 (LCMV; [2]) [nM] | other results |
| --- | --- | --- | --- |
| COCCCN1C[C@H](C(c2ccccc2)c2ccccc2)n2cc(C(=O)O)c(=O)c(O)c2C1=O [Compound I-044] | 354 | 40 |  |
| CN1C(=O)c2c(O)c(=O)c(C(=O)O)cn2C(C(c2ccccc2)c2ccccc2)N1C (stereo not shown) [Compound I-009] | 405 | 143 |  |
| CN1CN(C2c3ccccc3CCc3ccccc32)n2cc(C(=O)O)c(=O)c(O)c2C1=O [II-004] | 9.2 | 24 |  |
| O=C(O)CN1C[C@H](C(c2ccccc2)c2ccccc2)n2cc(C(=O)O)c(=O)c(O)c2C1=O [Compound I-063] |  | 280 |  |
| CCN(CC)CCN1CN(C2c3ccccc3CCc3ccccc32)n2cc(C(=O)O)c(=O)c(O)c2C1=O [III-022] |  | > 1000 |  |
| CON(C)C(=O)c1cn2c(c(O)c1=O)C(=O)N(C(C)C)CN2C1c2ccccc2CCc2ccccc21 [III-004] | 21 | 27 |  |
| O=C(O)c1cn2c(c(O)c1=O)C(=O)N(C(C1CC1)C1CC1)CN2C1c2ccccc2CSc2ccccc21 (stereo not shown) [III-029] |  |  | EC50 (Junin virus): 182 nM; EC50 (LCMV): 63 nM |
| O=C(O)c1cn2c(c(O)c1=O)C(=O)N(CCc1ccc(F)cc1F)CN2C1c2ccccc2CCc2ccccc21 [III-011] | 97 | 55 |  |
| CN1CN(C(c2ccccc2)c2ccccc2)n2cc(C(=O)O)c(=O)c(O)c2C1=O [Compound I-008] | 239 | 205 |  |
| CCN1CN(C(c2ccccc2)c2ccccc2)n2c(C)c(C(=O)O)c(=O)c(O)c2C1=O [Compound I-072] |  |  | EC50 (Junin virus; read-out: EC50): 14 nM |
| O=C(O)c1cn2c(c(O)c1=O)C(=O)N(CC1CCOCC1)CN2C1c2ccccc2CCc2ccccc21 [III-007] | 16 | 14 |  |
| O=C(O)c1cn2c(c(O)c1=O)C(=O)N(CC1CC1)CN2C(c1ccccc1)c1ccccc1 [III-027] | 13 | 19 |  |
| COCCN1C[C@H](C(c2ccccc2)c2ccccc2)n2cc(NC(=O)OC)c(=O)c(O)c2C1=O [Compound I-012] | 3000 |  |  |
| O=C(O)c1cn2c(c(O)c1=O)C(=O)N1CCCO[C@@H]1[C@@H]2Cc1ccccc1 [Compound I-054] | 1620 | 1960 |  |
| O=C(O)c1cn2c(c(O)c1=O)C(=O)N(Cc1ccccc1)C[C@@H]2C(c1ccccc1)c1ccccc1 [Compound I-041] | 180 | 6.2 |  |
| CN1C(=O)c2c(O)c(=O)c(C(=O)O)cn2C[C@H]1C(c1ccccc1)c1ccccc1 [Compound I-042] | 255 | 58 |  |
| O=C(O)c1cn2c(c(O)c1=O)C(=O)N(CC1CC1)CN2C1c2ccccc2CSc2ccccc21 (stereo not shown) [III-014] |  |  | EC50 (Junin virus): 276 nM; EC50 (LCMV): 130 nM |
| COCCN1C[C@H](CC2CCCCC2)n2cc(C(=O)O)c(=O)c(O)c2C1=O [Compound I-056] | 2030 |  |  |
| CCN1CN(Cc2ccc(-c3ccccc3OC)s2)n2c(C)c(C(=O)O)c(=O)c(O)c2C1=O [Compound I-073] |  |  | EC50 (Junin virus; read-out: EC50): 65 nM |
| O=C(O)c1cn2c(c(O)c1=O)C(=O)N1CCCO[C@H]1[C@@H]2Cc1ccccc1 [Compound I-062] |  | 2410 |  |
